Results published in patent publication EP4603105A1, “PHARMACEUTICAL COMPOSITION CONTAINING CYCLIC COMPOUND HAVING SELECTIVE KRAS INHIBITORY EFFECT AGAINST HRAS AND NRAS” (CHUGAI SEIYAKU KABUSHIKI KAISHA, priority 2022, dated 2024).
Where a SMILES comes first, the peptide text is derived from it. Bridges are numbered along the chain shown (N, C = ends). [ ]: non-standard residue; d: D form. The star is where a group is joined. hPhe(3-Cl-4-CF3) = N[C@@H](CCc1ccc(C(F)(F)F)c(Cl)c1)C(=O)O; NPrPhe(4-CF3) = CCCN[C@@H](Cc1ccc(C(F)(F)F)cc1)C(=O)O; NEtPhe(4-F) = CCN[C@@H](Cc1ccc(F)cc1)C(=O)O; NMeGly(cPent) = CN[C@H](C(=O)O)C1CCCC1; Pro(4,4-F2) = O=C(O)[C@@H]1CC(F)(F)CN1; NMeD = CN[C@@H](CC(=O)O)C(=O)O; NMeL = CN[C@@H](CC(C)C)C(=O)O; Morpholide = C1CN(*)CCO1; NMeA = CN[C@@H](C)C(=O)O; Ac5c = NC1(C(=O)O)CCCC1; Aze = O=C(O)[C@@H]1CCN1; Ac4c = NC1(C(=O)O)CCC1; Sar = CNCC(=O)O

Assays:
[1] = tested on: human lung cancer strain NCI-H441; assay type: cell-based
Procedure, shortened: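 Proliferation was scored by […] measured after the reagent was added to cultures kept at 37°C in 5% carbon dioxide.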

HRAS wild-type protein = HRAS wild-type protein (Homo sapiens, UniProt P01112); assay: Binding to HRAS by surface plasmon resonance (SPR), KD and KD ratio to KRAS
Sequence of HRAS wild-type protein (P01112 whole entry): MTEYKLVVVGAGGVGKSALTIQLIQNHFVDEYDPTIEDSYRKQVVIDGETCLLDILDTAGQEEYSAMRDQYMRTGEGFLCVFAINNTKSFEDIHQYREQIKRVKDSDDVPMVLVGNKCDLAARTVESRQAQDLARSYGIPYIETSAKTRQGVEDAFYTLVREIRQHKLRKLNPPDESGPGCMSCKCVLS
Procedure, shortened: (§1)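 SPR, 30°C: Avi-biotin RAS·GDP captured via Biotin CAPture (~100–300 RU); running buffer HBS pH 7.4, 1 mM DTT, 10 mM MgCl2, 0.01% Tween 20, 10 µM GDP, 4% DMSO. Single-cycle kinetics, 100 µL/min, 75 s injections; 1:1 model → KD.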

[2] = target: GDP-bound NRAS wild-type protein (Homo sapiens, UniProt P01111); assay: Binding to NRAS by surface plasmon resonance (SPR), KD and KD ratio to KRAS
Sequence of GDP-bound NRAS wild-type protein (P01111 whole entry): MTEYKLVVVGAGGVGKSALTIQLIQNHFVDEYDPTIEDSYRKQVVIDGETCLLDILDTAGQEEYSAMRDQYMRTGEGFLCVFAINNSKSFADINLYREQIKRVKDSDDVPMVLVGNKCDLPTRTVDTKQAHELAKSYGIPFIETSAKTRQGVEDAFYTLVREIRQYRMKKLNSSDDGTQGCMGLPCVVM
Procedure, shortened: as §1

[3] = ratio of the KD value with respect to HRAS wild-type protein to the KD value with respect to KRAS
[4] = ratio of the KD value with respect to GDP-bound NRAS wild-type protein to the KD value with respect to KRAS
[5] = ratio of KD for HRAS wild-type protein to KD for KRAS
[6] = ratio of KD for GDP-bound NRAS wild-type protein to KD for KRAS

SMILES	IC50 [1] [nM]	HRAS /KRAS (HRAS wild-type protein; [3])	NRAS /KRAS [2, 4]	HRAS /KRAS (HRAS wild-type protein; ratio of KD with respect to HRAS wild-type protein to KD with respect to KRAS)	NRAS /KRAS ([2]; ratio of KD with respect to GDP-bound NRAS wild-type protein to KD with respect to KRAS)	HRAS /KRAS (HRAS wild-type protein; [5])	NRAS /KRAS [2, 6]
CCO[C@@H]1C[C@H]2C(=O)NC3(CC(C)(C)C3)C(=O)N(C)[C@@H](C(CC)CC)C(=O)N(C)[C@H](C(=O)N(C)C)CC(=O)N(C)[C@@H](COC)C(=O)N[C@@H]([C@@H](C)CC)C(=O)N(C)CC(=O)N(C)[C@H]3C/C=C\CCN(C3=O)[C@@H](Cc3ccc(C(F)(F)F)cc3)C(=O)N(C)CC(=O)N[C@@H](CCc3cc(F)c(C(F)(F)F)c(F)c3)C(=O)N2C1 [PP2121]	11.4	A (a compound having 10 or more and less than 20 is denoted as A)	AA (a compound having 20 or more is denoted as AA)	–	–	–	–
CC[C@H](C)[C@@H]1NC(=O)[C@H](C2CCC2)N(C)C(=O)C[C@@H](C(=O)N(C)C)N(C)C(=O)[C@H](C2CCCC2)N(C)C(=O)C2(CC(C)(C)C2)NC(=O)[C@@H]2C[C@H](C)CN2C(=O)[C@H](CCc2ccc(C(F)(F)F)c(OC)c2)NC(=O)CN(C)C(=O)[C@H](Cc2ccc(C(F)(F)F)cc2)N2CC/C=C\C[C@@H](C2=O)N(C)C(=O)CN(C)C1=O [PP2011]	10.3	A (a compound having 10 or more and less than 20 is denoted as A)	A (a compound having 10 or more and less than 20 is denoted as A)	–	–	–	–
CCO[C@@H]1C[C@H]2C(=O)NC3(CCC3)C(=O)N(C)[C@@H](C3CCCC3)C(=O)N(C)[C@H](C(=O)N(C)CCOC)CC(=O)N(C)[C@@H](CC(C)C)C(=O)N[C@@H]([C@@H](C)CC)C(=O)N(C)CC(=O)N(C)[C@H]3C/C=C\CCN(C3=O)[C@@H](Cc3ccc(C(F)(F)F)cc3)C(=O)N(C)CC(=O)N[C@@H](CCc3cc(F)c(C(F)(F)F)c(F)c3)C(=O)N2C1 [PP1317]	7.6	–	–	B (a compound having 3 or more and less than 10 is denoted as B)	A (a compound having 10 or more and less than 20 is denoted as A)	–	–
CCO[C@H]1CCN2C(=O)[C@H](CCc3cc(F)c(C(F)(F)F)c(F)c3)NC(=O)CN(C)C(=O)[C@H](Cc3ccc(C(F)(F)F)cc3)N3CCCCC[C@@H](C3=O)N(C)C(=O)CN(C)C(=O)[C@H]([C@@H](C)CC)NC(=O)[C@H](CC(C)C)N(C)C(=O)C[C@@H](C(=O)N3CCOCC3)N(C)C(=O)[C@H](C3CCCC3)N(C)C(=O)C3(CCC3)NC(=O)[C@H]12 [PP1068]	121	–	–	–	–	B (a compound having 3 or more and less than 10 is denoted as B)	A (a compound having 10 or more and less than 20 is denoted as A)
CC[C@H](C)[C@@H]1NC(=O)[C@H](CC(C)C)N(C)C(=O)C[C@@H](C(=O)N(C)C)N(C)C(=O)[C@H](C2CCCC2)N(C)C(=O)C2(CCCC2)NC(=O)[C@@H]2CC(F)(F)CN2C(=O)[C@H](CCc2cc(F)c(C(F)(F)F)c(F)c2)NC(=O)CN(C)C(=O)[C@H](Cc2ccc(C(F)(F)F)cc2)N2CCCC[C@@H](C2=O)N(C)C(=O)CN(C)C1=O [PP0576]	2.4	B (a compound having 3 or more and less than 10 is denoted as B)	C (A compound having a KD ratio of 0.1 or more and less than 3 is denoted as C)	–	–	–	–
CCCN1C(=O)[C@@H]2CCN2C(=O)[C@H](C)N(C)C(=O)[C@H]([C@@H](C)CC)NC(=O)[C@H](CC(C)C)N(C)C(=O)C[C@@H](C(=O)N(C)C)NC(=O)[C@H](C2CCCC2)N(C)C(=O)C2(CCCC2)NC(=O)[C@@H]2CCCN2C(=O)[C@H](CCc2ccc(C(F)(F)F)c(Cl)c2)NC(=O)CN(C)C(=O)[C@@H]1Cc1ccc(C(F)(F)F)cc1 [PP0379] ([NMeL]I[NMeA][Aze][NPrPhe(4-CF3)][Sar][hPhe(3-Cl-4-CF3)]P[Ac5c][NMeGly(cPent)]D-NMe2; lactam N-11)	4.4	–	–	–	–	B (a compound having 3 or more and less than 10 is denoted as B)	C (A compound having a KD ratio of 0.1 or more and less than 3 is denoted as C)
CCC(CC)[C@H]1C(=O)N(C)[C@H](C(=O)N(C)C)CC(=O)N(C)[C@@H](COC)C(=O)N[C@@H]([C@@H](C)CC)C(=O)N(C)CC(=O)N(C)[C@H]2C/C=C\CCN(C2=O)[C@@H](Cc2ccc(C(F)(F)F)cc2)C(=O)N(C)CC(=O)N[C@@H](CCc2ccc(Cl)c(Cl)c2)C(=O)N2CCOC[C@H]2C(=O)NC2(CC(C)(C)C2)C(=O)N1C [PP2941]	104	–	–	–	–	A (a compound having 10 or more and less than 20 is denoted as A)	AA (a compound having 20 or more is denoted as AA)
CCO[C@@H]1C[C@H]2C(=O)NC3(CCC3)C(=O)N(C)[C@@H](C3CCCC3)C(=O)N(C)[C@H](C(=O)N(C)C)CC(=O)N(C)[C@@H](CC)C(=O)N[C@@H]([C@@H](C)CC)C(=O)N(C)CC(=O)N(C)[C@H]3C/C=C\CCN(C3=O)[C@@H](Cc3ccc(C(F)(F)F)cc3)C(=O)N(C)CC(=O)N[C@@H](CCc3cc(F)c(C(F)(F)F)c(F)c3)C(=O)N2C1 [PP0824]	23.6	–	–	–	–	A (a compound having 10 or more and less than 20 is denoted as A)	A (a compound having 10 or more and less than 20 is denoted as A)
C=CC[C@H]1C(=O)N[C@@H]([C@@H](C)CC)C(=O)N(C)CC(=O)N(C)[C@H]2CCCCCN(C2=O)[C@@H](Cc2ccc(C(F)(F)F)cc2)C(=O)N(C)CC(=O)N[C@@H](CCc2cc(F)c(C(F)(F)F)c(F)c2)C(=O)N2C[C@H](OCC)C[C@H]2C(=O)N[C@](C)(CC=C)C(=O)N(C)[C@@H](C2CCCC2)C(=O)N(C)[C@H](C(=O)N2CCOCC2)CC(=O)N1C [PP0878]	85.9	–	–	–	–	B (a compound having 3 or more and less than 10 is denoted as B)	B (a compound having 3 or more and less than 10 is denoted as B)
CCCN1C(=O)CN(C)C(=O)CNC(=O)[C@H]([C@@H](C)CC)NC(=O)[C@H](CC(C)C)N(C)C(=O)C[C@@H](C(=O)N(C)C)N(C)C(=O)[C@H](C2CCCC2)N(C)C(=O)C2(CCC2)NC(=O)[C@@H]2CC(F)(F)CN2C(=O)[C@H](CCc2ccc(C(F)(F)F)c(Cl)c2)NC(=O)CN(C)C(=O)[C@@H]1Cc1ccc(C(F)(F)F)cc1 [PP0420] ([NMeL]IG[Sar][NPrPhe(4-CF3)][Sar][hPhe(3-Cl-4-CF3)][Pro(4,4-F2)][Ac4c][NMeGly(cPent)][NMeD]-NMe2; lactam N-11)	1.2	C (A compound having a KD ratio of 0.1 or more and less than 3 is denoted as C)	B (a compound having 3 or more and less than 10 is denoted as B)	–	–	–	–
CC[C@H](C)[C@@H]1NC(=O)[C@H](CC(C)C)N(C)C(=O)C[C@@H](C(=O)N2CCOCC2)N(C)C(=O)[C@H](C2CCCC2)N(C)C(=O)C2(CCCC2)NC(=O)[C@@H]2CCCN2C(=O)[C@H](CCc2ccc(C(F)(F)F)c(Cl)c2)NC(=O)CN(C)C(=O)[C@H](Cc2ccc(F)cc2)N(CC)C(=O)[C@@H]2CCN2C(=O)[C@H](C)N(C)C1=O [PP0218] ([NMeL]I[NMeA][Aze][NEtPhe(4-F)][Sar][hPhe(3-Cl-4-CF3)]P[Ac5c][NMeGly(cPent)][NMeD]-Morpholide; lactam N-11)	3.9	–	–	–	–	C (A compound having a KD ratio of 0.1 or more and less than 3 is denoted as C)	C (A compound having a KD ratio of 0.1 or more and less than 3 is denoted as C)
